Blank lines part the entries; values can stand above or below the molecule they belong to.
Tests used:
[1] = tested on: bladder function; test: In vivo assay of bladder function (cystometry) in conscious rats; set-up: species or system rat
Experimental: This study was performed in order to assess the effects of compounds on various aspects of bladder function in conscious rats. See, Clouse, 2012, Urology 79(6):1410e1-1410e6. Rats were prepared with indwelling polyethylene catheters positioned into the bladder through the dome and exteriorized at the scapular level. […] pressure was monitored by connecting the catheter to a commercial strain gauge via a T-connector that permitted the infusion of solutions and drugs. Cystometric recording commenced 48 hours after catheter implantation. Animals were continuously administered saline, with or without test compounds, through the catheter, at a rate of 2 mL/hr. Urine was collected and weighed using a force transducer and intravesical pressure was continually monitored in order to assess micturition amplitude, frequency and volume and bladder capacity. Saline perfusions were supplemented with test compounds in order to determine the effects on each of the above bladder function parameters.

[2] = tested on: isolated detrusor bladder muscle; test: In vitro assay on isolated bladder detrusor muscle strips, EFS-induced contractions in organ bath; set-up: species or system guinea pig; conditions: for IC50, inhibition of EFS-induced detrusor contractions: cumulative concentration-response, isolated guinea pig detrusor strips; for steady-state inhibition of EFS-induced contractile response: drug 0.01% in organ bath
Experimental: Whole bladders were removed from euthanized female guinea pigs, longitudinal detrusor muscle strips were dissected from each bladder and were mounted in a conventional glass organ bath and perfused continuously with an oxygenated Krebs solution. Detrusor contractions were elicited in response to electrical field stimulation (EFS) and were recorded using isometric force transducers linked to a data acquisition software system. After an equilibration period, tissue strips were subjected to regular EFS for a period of 30 minutes or until stable baseline contractions were attained.

[3] = tested on: micturition pattern; conditions: animal model of IC and OAB; cited from earlier work
[4] = tested on: noxious urinary bladder distention; conditions: in vivo; cited from earlier work
[5] = infusion of 0.3% solution into bladder, conscious rats

SMILES: Cc1ccccc1N(CC[C@H]1CCCC[N+]1(C)C)C1Cc2ccccc2C1.[I-] [(R)-1,1-dimethyl-2-[2-((indan-2-yl)(2-methylphenyl)amino)ethyl]piperidinium iodide]
duration of action on micturition frequency ([1]; compared to lidocaine): longer duration of action

IC50, inhibition of EFS-induced detrusor contractions [2]: ~0.0001%
SMILES: Cc1ccccc1N(CC[C@H]1CCCC[N+]1(C)C)C1Cc2ccccc2C1.[Br-] [example 43, (R)-1,1-dimethyl-2-[2-((indan-2-yl)(2-methylphenyl)amino)ethyl]piperidinium iodide]
time for which steady state inhibition was maintained after drug had been eliminated from the organ bath ([2]; 0.01%): at least 2 hours | steady-state inhibition of EFS-induced contractile response [2]: 30-45% | potency relative to lidocaine alone ([2]; from IC50 for inhibition of EFS-induced detrusor contractions): about 10 fold | period of effect on bladder capacity and micturition volume after administration ([1]; infusion of 0.3% solution): 2 h | bladder capacity [1, 5]: increase in bladder capacity | micturition volume [1, 5]: decrease in micturition volume

SMILES: CCN(CC)CC(=O)Nc1c(C)cccc1C [lidocaine, reference compound]
recovery of EFS-induced contractile response after washout ([2]; 0.01%, by 2 hours after washing out): around 80 % of predrug levels | IC50, inhibition of EFS-induced detrusor contractions [2]: ~0.001% | steady-state inhibition of EFS-induced contractile response [2]: ~40% | micturition pattern as determined by cystometry [3]: normalizes the micturition pattern

SMILES: Cc1cccc(C)c1OCC(C)N (stereo not shown) [mexilitine]
painful sensation of noxious urinary bladder distention [4]: prevents the painful sensation

— patent US9044482B2, “Use of aminoindane compounds in treating overactive bladder and interstitial cystitis” (priority 2012, dated 2015)
